Where “and” joins values, the source holds several entries; their conditions need not be identical. Equal values may be shown once. Read-outs that look alike come from different tables or passages of the source.
Key:
[1] = tested on: Ras-CVLS processing in COS monkey kidney cells; experiment: COS cell assay: Ras-CVLS processing (Western blot); format: cell-based; settings: Primates, COS
In short: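 COS cells electroporated with Ras-CVLS (farnesyl transferase substrate) cDNA, with drug-containing fresh medium added at 24 h and cells examined at 48 h. TCA-precipitated cellular protein was resolved by SDS gel and immunoblotted with anti-p21 Ras monoclonal and HRP anti-rat IgG to monitor Ras processing.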

[2] = tested on: T24-BAG4 human bladder carcinoma cells expressing an activated H-ras gene; experiment: Cell Mat Assay: tumor cell colony inhibition (tIC50); format: cell-based; settings: Homo sapiens, inhibition of tumor cell growth
In short: (§1)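 Serial compound dilutions added 24 h after planting T24-BAG4 cells onto a mat of normal cells, then 14 d colony growth; monolayers glutaraldehyde-fixed and tumor cells X-Gal stained. tIC50 and mIC50 from microscope counts of colonies, cells per colony and mat cell density.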

[3] = tested on: Ras-CVLL processing in COS monkey kidney cells; experiment: COS cell assay: Ras-CVLL processing (geranylgeranylation); format: cell-based; settings: concentrations up to 20 μg/mL
Excerpt: (§2) 2. Cell-Based Assay: Transient expression of val^12-Ha-Ras-CVLS and val^12-Ha-Ras-CVLL in COS monkey kidney cells: Effect of farnesyl protein transferase inhibitors on Ras processing and on disordered cell growth induced by transforming Ras.
COS monkey kidney cells were transfected by electroporation with the plasmid pSV-SPORT (Gibco/BRL) containing a cDNA insert encoding either Ras-CVLS or Ras-CVLL, leading to transient overexpression of a Ras substrate for either farnesyl protein transferase or geranylgeranyl protein transferase I, respectively (see above). […]
Membranes were blocked by incubation overnight at 4° C. in PBS containing 2.5% dried milk and 0.5% Tween-20 and then incubated with a Ras-specific monoclonal antibody, Y13-259 (Furth, M. E., et al., (1982), Monoclonal antibodies to the p21 products of the transforming gene of Harvey murine sarcome virus and of the cellular ras gene family, J. Virol. 43: 294-304), in PBS containing 1% fetal calf serum for one hour at room temperature. […] The presence of processed and unprocessed Ras-CVLS or Ras-CVLL was detected using a colorimetric peroxidase reagent (4-chloro-1-naphthol) as described by the manufacturer (Bio-Rad).

[4] = tested on: COS monkey kidney cells expressing val12-Ha-Ras-CVLL; experiment: COS cell assay: disordered cell growth / morphological changes induced by Ras-CVLL; format: cell-based; settings: 20 μg/mL
Excerpt: as §2
(§3) COS monkey kidney cells were transfected by electroporation with the plasmid pSV-SPORT (Gibco/BRL) containing a cDNA insert encoding either Ras-CVLS or Ras-CVLL, leading to transient overexpression of a Ras substrate for either farnesyl protein transferase or geranylgeranyl protein transferase I, respectively (see above).
(§4) Following electroporation, cells were plated into 6-well tissue culture dishes containing 1.5 ml of Dulbecco's-modified Eagle's media (GIBCO, Inc.) supplemented with 10% fetal calf serum and the appropriate farnesyl protein transferase inhibitors. After 24 hours, media was removed and fresh media containing the appropriate drugs was re-added.
(§5) 48 hours after electroporation cells were examined under the microscope to monitor disordered cell growth induced by transforming Ras. Cells expressing transforming Ras become more rounded and refractile and overgrow the monolayer, reminiscent of the transformed phenotype. […]

[5] = tested on: COS monkey kidney cells expressing val12-Ha-Ras-CVLS; experiment: COS cell assay: disordered cell growth / morphological changes induced by Ras-CVLS; format: cell-based
Excerpt: as §2, §3, §4, §5

[6] = tested on: Normal human HEPM fibroblasts; experiment: Cell Mat Assay: density of mat cells (mIC50); format: cell-based; settings: Homo sapiens, Fibroblast
In short: as §1

[7] = tested on: SW620 (human colon adenocarcinoma [lymph node metastasis]); experiment: In vivo anti-tumor study, SW620; set-up: species or system athymic nu/nu female mice; percent inhibition of tumor growth relative to vehicle controls: concentration or dose not given beside the values; settings: for inhibition in vivo at 100 mg/kg: Mus musculus, SW620 tumor, 100 MPK, 10/wk; for percent inhibition of tumor growth relative to vehicle controls: s.c. tumor SW-620, BID
[8] = tested on: M27 (mouse Lewis lung carcinoma); experiment: In vivo anti-tumor study, M27; set-up: species or system athymic nu/nu female mice; settings: po; for Average % Tumor Inhibition: M27 tumor, 100 MPK, 14/wk, x4; for percent inhibition of tumor growth relative to vehicle controls: s.c. tumor M27, BID, 1-7, ×4
Excerpt: In vivo Anti-tumor Studies

[9] = target: T1, geranylgeranyl protein transferase (GGPT) I (Rattus norvegicus, UniProt P53610+Q04631); experiment: Inhibition of geranylgeranyl protein transferase I (Ras-CVLL as acceptor); format: biochemical; settings: for selective for FPT inhibition (over GGPT): FPT versus GGPT; for IC50: enzyme inhibition
T1 construct: were partially purified from rat brain by ammonium sulfate fractionation followed by Q-Sepharose
T1 sequence (P53610 whole entry, one chain of several): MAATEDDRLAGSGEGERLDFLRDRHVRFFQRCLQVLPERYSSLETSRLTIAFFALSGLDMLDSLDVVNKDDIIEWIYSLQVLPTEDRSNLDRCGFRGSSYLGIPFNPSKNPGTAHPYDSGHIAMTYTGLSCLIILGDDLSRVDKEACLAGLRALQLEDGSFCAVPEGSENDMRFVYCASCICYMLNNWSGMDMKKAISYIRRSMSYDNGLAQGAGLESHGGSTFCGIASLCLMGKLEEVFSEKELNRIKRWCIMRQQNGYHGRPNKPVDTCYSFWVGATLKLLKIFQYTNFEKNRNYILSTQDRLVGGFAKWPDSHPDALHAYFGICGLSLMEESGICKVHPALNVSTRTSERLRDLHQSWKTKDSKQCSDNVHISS
In short: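 Rat brain GGPT I, partially purified by ammonium sulfate fractionation and anion exchange, was assayed with [3H]geranylgeranyl pyrophosphate as isoprenoid donor. The acceptor was E. coli-expressed His6-tagged val12-Ha-Ras ending in CVLL. The protocol otherwise matched the farnesyl protein transferase assay.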

[10] = tested on: C-f-1 (mouse fibroblast transformed with c-fos oncogene); experiment: In vivo anti-tumor study, C-f-1; set-up: species or system athymic nu/nu female mice; concentration or dose not given beside the values; settings: s.c. tumor C-f-1, BID
[11] = target: T2, farnesyl protein transferase (FPT), partially purified from rat brain (Rattus norvegicus, UniProt Q02293+Q04631); experiment: Inhibition of farnesyl protein transferase (transfer of [3H]farnesyl to Ras-CVLS); format: biochemical; settings: read-out: FPT IC50
T2 construct: were partially purified from rat brain by ammonium sulfate fractionation followed by Q-Sepharose
T2 sequence (Q02293 whole entry, one chain of several): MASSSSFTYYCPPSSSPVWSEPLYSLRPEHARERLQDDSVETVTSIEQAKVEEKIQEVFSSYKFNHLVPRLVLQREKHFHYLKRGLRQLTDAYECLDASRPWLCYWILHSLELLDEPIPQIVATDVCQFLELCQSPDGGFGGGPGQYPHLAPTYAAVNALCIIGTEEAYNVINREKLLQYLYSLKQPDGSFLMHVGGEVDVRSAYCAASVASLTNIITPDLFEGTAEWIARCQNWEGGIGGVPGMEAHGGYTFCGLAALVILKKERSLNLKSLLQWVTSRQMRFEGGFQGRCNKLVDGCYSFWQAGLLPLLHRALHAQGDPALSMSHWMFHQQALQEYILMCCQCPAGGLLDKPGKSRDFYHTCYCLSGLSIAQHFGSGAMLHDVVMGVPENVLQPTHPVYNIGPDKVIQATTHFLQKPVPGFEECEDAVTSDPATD
In short: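 Partially purified farnesyl protein transferase with His6-tagged val12-Ha-Ras-CVLS substrate and [3H]farnesyl pyrophosphate, 30 min at room temperature. Stopped with SDS/TCA, precipitated Ras collected on GF/C filters; percent inhibition relative to DMSO vehicle control.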

[12] = tested on: A431 (human epidermal carcinoma); experiment: In vivo anti-tumor study, A431; set-up: species or system athymic nu/nu female mice; concentration or dose not given beside the values; settings: s.c. tumor A431, BID, 1-5, ×4
[13] = COS cells, read-out: Inhibition of Ras Processing IC50
[14] = Ras-CVLS farnesylation, partially purified rat brain FPT

Row | SMILES | IC50 [1, 13] | IC50 [2] | IC50 [6] | inhibition in vivo at 100 mg/kg ([7]; SW-620, po, po, x2) | inhibition in vivo at 100 mg/kg ([7]; SW-620, po, po, x4) | percent inhibition of tumor growth relative to vehicle controls ([7]; ip, 1-5, ×4) | percent inhibition of tumor growth relative to vehicle controls ([7]; po, 1-5, ×2) | percent inhibition of tumor growth relative to vehicle controls ([7]; po, 1-5, ×4) | Average % Tumor Inhibition [8] | percent inhibition of tumor growth relative to vehicle controls [8] | selective for FPT inhibition (over GGPT) [9] | IC50 [9] | percent inhibition of tumor growth relative to vehicle controls ([10]; ip, 1-5, ×2) | percent inhibition of tumor growth relative to vehicle controls ([10]; po, 1-5, ×4) | IC50 [11, 14] | IC50 ([11]; enzyme inhibition) | percent inhibition of tumor growth relative to vehicle controls ([12]; po) | percent inhibition of tumor growth relative to vehicle controls ([12]; ip) | further results
1 | O=C(Cc1ccncc1)N1CCC(=C2c3ccc(Cl)cc3CCc3cccnc32)CC1 [Example 1, 1-(4-pyridylacetyl)-4-(8-chloro-5,6-dihydro-11H-benzo[5,6]cyclohepta[1,2-b]pyridin-11-ylidene)piperidine] | 1 µM | 3.1 µM | – | – | – | – | – | – | – | – | – | – | – | – | – | – | – | – | IC50 ([1]; Ras-transfected COS cells, read-out: Ras-CVLS processing IC50): 1 µM and 0.44 µg/mL; geranylgeranylation of Ras-CVLL [3]: did not block; morphological changes induced by Ras-CVLL [4]: did not prevent the morphological changes; morphological changes induced by Ras-CVLS ([5]; at 0.2 or 0.5 μg/mL): little effect; morphological changes induced by Ras-CVLS ([5]; concentration range of 2 to 20 μg/mL): inhibited the morphological changes induced by Ras-CVLS in a dose-dependent manner
2 | O=C(Cc1cccnc1)N1CCC(=C2c3ccc(Cl)cc3CCc3cccnc32)CC1 [Example 2, 8-chloro-11-[1-(1-(3-pyridyl)-methylcarbonyl)-4-piperidylidene]-6,11-dihydro-5H-benzo[5,6]cyclohepta[1,2-b]-pyridine] | 3.7 µM | 25 µM | > 50 µM | 0% | 1% | 0% | 46.1% | 33.5% | 45% | 61.2% | at least 98 fold | > 46 µM | 8% | 9.6% | 0.47 µM | 0.47 µM | 45.6% and 36.5% | – | inhibition in vivo at 100 mg/kg ([7]; SW-620, ip, ip, x2): 0%; inhibition at 46 µM ([9]; at 46 μM, Ras-CVLL as isoprenoid acceptor): 25%
3 | O=C(CN1C(=O)c2ccccc2C1=O)N1CCC(=C2c3ccc(Cl)cc3CCc3cccnc32)CC1 [Example 3] | > 10 µM | > 50 µM | > 50 µM | – | – | 27% | 15.8% | – | – | 27.3% | at least 59 fold | > 39 µM | 8% | 0% | 0.66 µM | 0.66 µM | – | 0% | inhibition at 39 µM ([9]; at 39 μM, Ras-CVLL as isoprenoid acceptor): 3%
4 | O=C(c1ccc(O)cc1)N1CCC(=C2c3ccc(Cl)cc3CCc3cccnc32)CC1 [Example 7] | – | 50 µM | 100 µM | 13% | 0% | 19.6% | 48.6% | 0% | 40% | 58.2% | – | > 45 µM | 39.7% | 39.3% | 2.3 µM | 2.3 µM | 29.1% | 0% | –

Source: patent US20030055065A1, “Tricyclic amide and urea compounds useful for inhibition of G-protein function and for treatment of proliferative diseases” (priority 1993, published 2003)
